Measured values: patent US9096524B2, “Anthelmintic agents and their use” (Intervet International B.V., priority 2009, dated 2015)
Read-outs that look alike come from different tables or passages of the source.

Columns and labels:
[1] = system: Haemonchus contortus; assay: Efficacy against Haemonchus contortus in jirds; assay type: in vivo, jirds (Meriones unguiculatus); conditions: 72 h, read-out: % Reduction in H.
Description: Anthelmintic effects of compounds of this invention were tested in vivo using Haemonchus contuortus in jirds (Meriones unguiculatus). The jirds were orally infected with approximately 750-3,000 third-stage larvae of Haemonchus contortus. Ten days after infection, the jirds in the treatment groups were treated once orally or subcutaneously at a dose of 2, 10, and/or 50 mg per kg bodyweight. Three days after treatment, the jirds were necropsied, and the larvae burden in the stomach is determined. The efficacy is defined as the reduction of the mean larvae count in the jirds of the treatment groups in comparison to the infected jirds in the untreated negative control group.

[2] = system: A. galli (intestinal roundworm of chicken) larval stage 3; O. dentatum (nodular worm of swine) larval stages 3 and 4; assay: Activity against Ascaridia galli and Oesophagostomum dentatum larvae in vitro (minimum effective concentration); assay type: cell-based
[3] = jirds, 50 mg/kg, oral, single treatment, larvae burden in stomach 3 days after treatment
[4] = sc, jirds, 50 mg/kg, subcutaneous, single treatment, larvae burden in stomach 3 days after treatment
[5] = in vitro, two or more of A. galli L3, O. dentatum L3, L4, threshold 1 μM, read-out: MEC (minimum effective concentration) against two or more of the tested nematodes
[6] = read-out: MEC (minimum effective concentration) against one or more of the tested nematodes, in vitro, one or more of A. galli L3, O. dentatum L3, L4, threshold 1 μM
[7] = read-out: MEC (minimum effective concentration) against one or more of the tested nematodes, in vitro, one or more of A. galli L3, O. dentatum L3, L4, threshold 7 μM
[8] = read-out: MEC (minimum effective concentration) against two or more of the tested nematodes, in vitro, two or more of A. galli L3, O. dentatum L3, L4, threshold 1 μM
[9] = jirds, 10 mg/kg, oral, single treatment, larvae burden in stomach 3 days after treatment
[10] = sc, jirds, 10 mg/kg, subcutaneous, single treatment, larvae burden in stomach 3 days after treatment
[11] = in vitro, one or more of A. galli L3, O. dentatum L3, L4, threshold 1 μM, read-out: MEC (minimum effective concentration) against one or more of the tested nematodes
[12] = in vitro, one or more of A. galli L3, O. dentatum L3, L4, threshold 7 μM, read-out: MEC (minimum effective concentration) against one or more of the tested nematodes

SMILES | minimal effective concentration [2, 5] | inhibition in vivo at 50 mg/kg ([1]; po) | inhibition in vivo at 50 mg/kg ([1]; sc) | minimal effective concentration [2, 6] | minimal effective concentration [2, 7] | minimal effective concentration [2, 8] | also measured
O=C(CCN1CCN(c2ccc(Cl)cc2)CC1)N1CCC(Nc2ccc(S(=O)(=O)c3ccc(F)cc3)cc2)CC1 [Example 295] | < 1 µM | – | – | – | – | – | inhibition in vivo at 50 mg/kg [1, 3]: 97%; inhibition in vivo at 50 mg/kg [1, 4]: 0%
CSc1ccc(NC2CCN(C(=O)CCCN3CCN(c4ccc(C(F)(F)F)cc4)CC3)CC2)cc1C(F)(F)F [Example 5, 1-[4-(4-methylsulfanyl-3-trifluoromethyl-phenylamino)-piperidin-1-yl]-4-[4-(4-trifluoromethyl-phenyl)-piperazin-1-yl]-butan-1-one] | – | 87% | 99% | < 1 µM | < 7 µM | < 1 µM | –
COc1cc(NC2CCN(C(=O)CCN3CCN(c4ccc(OCc5ccc(C(F)(F)F)cc5)cc4)CC3)CC2)ccc1[N+](=O)[O-] [Example 40, 1-[4-(3-methoxy-4-nitro-phenylamino)-piperidin-1-yl]-3-{4-[4-(4-trifluoromethyl-benzyloxy)-phenyl]-piperazin-1-yl}-propan-1-one] | – | 0% | 74% | < 1 µM | < 7 µM | < 1 µM | –
O=C(CCCC1CCN(c2ccc(C(F)(F)F)cc2)CC1)N1CCC(Nc2ccc([N+](=O)[O-])c(C(F)(F)F)c2)CC1 [Example 134, 1-[4-(4-nitro-3-trifluoromethyl-phenylamino)-piperidin-1-yl]-4-[1-(4-trifluoromethyl-phenyl)-piperidin-4-yl]-butan-1-one] | – | – | – | < 1 µM | < 7 µM | < 1 µM | inhibition in vivo at 10 mg/kg ([1]; po): 99%; inhibition in vivo at 10 mg/kg ([1]; sc): 99%
CN(C)S(=O)(=O)c1ccc(NC2CCN(C(=O)CCN3CCN(c4ccc(C(C)(C)C)cc4)CC3)CC2)cc1C(F)(F)F [Example 345] | < 1 µM | – | – | – | – | – | inhibition in vivo at 50 mg/kg [1, 3]: 76%; inhibition in vivo at 50 mg/kg [1, 4]: 61%
O=C(CCCN1CCN(c2ccc(C(F)(F)F)cc2)CC1)N1CCC(Nc2ccc(Cl)c(SC(F)(F)F)c2)CC1 [Example 17, 1-[4-(4-chloro-3-trifluoromethylsulfanyl-phenylamino)-piperidin-1-yl]-4-[4-(4-trifluoromethyl-phenyl)-piperazin-1-yl]-butan-1-one] | – | 100% | 96% | < 1 µM | < 7 µM | < 1 µM | –
CC(C)(C)c1ccc(N2CCN(CCC(=O)N3CCC(Nc4ccc([N+](=O)[O-])c(C(F)(F)F)c4)CC3)CC2)cc1 [Example 35, 3-[4-(4-tert-butyl-phenyl)-piperazin-1-yl]-1-[4-(4-nitro-3-trifluoromethyl-phenylamino)-piperidin-1-yl]-propan-1-one] | – | 45% | 93% | < 1 µM | < 7 µM | < 1 µM | –
C[C@@H](CN1CCN(c2ccc(C(F)(F)F)cc2)CC1)C(=O)N1CCC(Nc2ccc([N+](=O)[O-])c(C(F)(F)F)c2)CC1 [Example 68, (S)-2-methyl-1-[4-(4-nitro-3-trifluoromethyl-phenylamino)-piperidin-1-yl]-3-[4-(4-trifluoromethyl-phenyl)-piperazin-1-yl]-propan-1-one] | < 1 µM | – | – | – | – | – | inhibition in vivo at 10 mg/kg [1, 9]: 99%; inhibition in vivo at 10 mg/kg [1, 10]: 99%; minimal effective concentration [2, 11]: < 1 µM; minimal effective concentration [2, 12]: < 7 µM
O=C(CCCN1CCN(c2ccc(C(F)(F)F)cc2)CC1)NC1CCN(c2ccc([N+](=O)[O-])c(C(F)(F)F)c2)CC1 [Example 73, N-[1-(4-nitro-3-trifluoromethyl-phenyl)-piperidin-4-yl]-4-[4-(4-trifluoromethyl-phenyl)-piperazin-1-yl]-butyramide] | < 1 µM | – | – | – | – | – | inhibition in vivo at 10 mg/kg [1, 9]: 54%; inhibition in vivo at 10 mg/kg [1, 10]: 63%; minimal effective concentration [2, 11]: < 1 µM; minimal effective concentration [2, 12]: < 7 µM
O=C(CCCN1CCN(c2ccc(C(F)(F)F)cc2)CC1)N1CCC(Nc2ccc(C(F)(F)F)cn2)CC1 [Example 51, 4-[4-(4-trifluoromethyl-phenyl)-piperazin-1-yl]-1-[4-(5-trifluoromethyl-pyridin-2-ylamino)-piperidin-1-yl]-butan-1-one] | – | 86% | 63% | < 1 µM | < 7 µM | < 1 µM | –
O=C(CCCN1CCN(c2ccc(C(F)(F)F)cc2)CC1)N1CCC(Nc2ccc(OC(F)(F)F)cc2)CC1 [Example 54, 1-[4-(4-trifluoromethoxy-phenylamino)-piperidin-1-yl]-4-[4-(4-trifluoromethyl-phenyl)-piperazin-1-yl]-butan-1-one] | – | 95% | 58% | < 1 µM | < 7 µM | < 1 µM | –
O=C(CCCN1CCN(c2ccc(C(F)(F)F)cc2)CC1)NC1CCN(c2ccc(SC(F)(F)F)cc2)CC1 [Example 76, 4-[4-(4-trifluoromethyl-phenyl)-piperazin-1-yl]-N-[1-(4-trifluoromethylsulfanyl-phenyl)-piperidin-4-yl]-butyramide] | < 1 µM | – | – | – | – | – | inhibition in vivo at 10 mg/kg [1, 9]: 67%; inhibition in vivo at 10 mg/kg [1, 10]: 13%; minimal effective concentration [2, 11]: < 1 µM; minimal effective concentration [2, 12]: < 7 µM
O=C(CCN1CCN(c2ccc(OCc3ccccc3)cc2)CC1)N1CCC(Nc2ccc([N+](=O)[O-])c(C(F)(F)F)c2)CC1 [Example 23, 3-[4-(4-benzyloxy-phenyl)-piperazin-1-yl]-1-[4-(4-nitro-3-trifluoromethyl-phenylamino)-piperidin-1-yl]-propan-1-one] | – | 66% | 92% | < 1 µM | < 7 µM | < 1 µM | –
CS(=O)(=O)c1ccc(NC2CCN(C(=O)CCCN3CCN(c4ccc(C(F)(F)F)cc4)CC3)CC2)cc1C(F)(F)F [Example 30, 1-[4-(4-methanesulfonyl-3-trifluoromethyl-phenylamino)-piperidin-1-yl]-4-[4-(4-trifluoromethyl-phenyl)-piperazin-1-yl]-butan-1-one] | – | 62% | 69% | < 1 µM | < 7 µM | < 1 µM | –
N#Cc1cccc(NC2CCN(C(=O)CCCN3CCN(c4ccc(C(F)(F)F)cc4)CC3)CC2)c1 [Example 7, 3-(1-{4-[4-(4-trifluoromethyl-phenyl)-piperazin-1-yl]-butyryl}-piperidin-4-ylamino)-benzonitrile] | – | 99% | 98% | < 1 µM | < 7 µM | < 1 µM | –
CCCc1ccc(C2CCN(CCC(=O)N3CCC(Oc4ccc([N+](=O)[O-])c(OCC)c4)CC3)CC2)cc1 [Example 579] | – | 96% | 96% | – | – | < 1 µM | –
CC(C)(C)c1ccc(C2CCN(CCC(=O)N3CCC(Nc4ccc([N+](=O)[O-])c(C(F)(F)F)c4)CC3)CC2)cc1 [Example 367] | < 1 µM | – | – | – | – | – | inhibition in vivo at 50 mg/kg [1, 3]: 73%; inhibition in vivo at 50 mg/kg [1, 4]: 45%
O=C(CCN1CCC(OCc2ccc(C(F)(F)F)cc2)CC1)N1CCC(Nc2ccc([N+](=O)[O-])c(C(F)(F)F)c2)CC1 [Example 57, 1-[4-(4-nitro-3-trifluoromethyl-phenylamino)-piperidin-1-yl]-3-[4-(4-trifluoromethyl-benzyloxy)-piperidin-1-yl]-propan-1-one] | – | 85% | 84% | < 1 µM | < 7 µM | < 1 µM | –
